For 41 compounds, IC50 results are on record in patent publication US9115093B2, “Substituted bicyclic dihydropyrimidinones and their use as inhibitors of neutrophil elastase activity” (Boehringer Ingelheim International GmbH, priority 2013, dated 2015).

The experiment deals with T1, neutrophil elastase (Homo sapiens, UniProt P08246).
T1 sequence (P08246 30-247 limits assumed): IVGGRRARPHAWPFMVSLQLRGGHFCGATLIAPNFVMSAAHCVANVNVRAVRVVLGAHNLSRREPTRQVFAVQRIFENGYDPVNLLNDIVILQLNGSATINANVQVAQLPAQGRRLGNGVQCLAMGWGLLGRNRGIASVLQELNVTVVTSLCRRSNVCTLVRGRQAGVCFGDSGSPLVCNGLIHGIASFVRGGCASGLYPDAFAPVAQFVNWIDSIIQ
The experiment is described as follows: Human Neutrophil Elastase Assay. More on the design: purchased Calbiochem 324681. The conditions noted are these: substrate MeOSuc-Ala-Ala-Pro-Val-AMC, pH 7.5, room temperature. The experiment is classed as biochemical. Here is the method: Human Neutrophil Elastase Assay
Materials: Human neutrophil elastase was purchased from Calbiochem (Cat.No.: 324681) and the elastase substrate MeOSuc-Ala-Ala-Pro-Val-AMC from Bachem (Cat.No.: I-1270). All other materials were of the highest grade commercially available.
The following buffers were used: Compound buffer: 100 mM Tris, 500 mM NaCl, adjusted to pH 7.5; Assay buffer: 100 mM Tris, 500 mM NaCl, adjusted to pH 7.5, containing 0.01% BSA.
Assay conditions: Test compounds were prediluted in DMSO and subsequently in compound buffer (5% DMSO final). 5 μL of these compound dilutions were mixed with 10 μl Neutrophil elastase (9 ng/ml in assay buffer) in a black 384 well OptiPlate (Perkin Elmer, Cat No.: 6007270) and incubated for 15 min at room temperature. Subsequently 10 μL substrate solution in assay buffer were added (250 nM final concentration) and the plates were incubated for 60 min at room temperature. After inactivation of the enzyme, fluorescence intensities were measured at 380 nm excitation and 460 nm emission wavelengths.
Each plate contains wells with a high value control (DMSO+enzyme+substrate) and wells with a low value control (DMSO+inactivated enzyme+substrate). IC50 values were estimated using a sigmoidal concentration response curve with variable slope. Means of low values were taken as 0%, means of high values as 100%.

SMILES strings stand for the structures.

`N#Cc1ccc(C2C3=C(CCCC3=O)N(c3cccc(C(F)(F)F)c3)C(=O)N2CC2CCOCC2)cc1` (centres unmarked) [Example 26] displayed an IC50 of 11.8 nM. In other words, the double-digit nanomolar range. The compound `Cn1ccc(CN2C(=O)N(c3cccc(C(F)(F)F)c3)C3=C(C(=O)CCC3)C2c2ccc(C#N)cc2)cc1=O` (centres unmarked) [Example 27, 4-(1-(3-(Trifluoromethyl)phenyl)-3-((1-methyl-2-oxo-1,2-dihydropyridin-4-yl)methyl)-2,5-dioxo-1,2,3,4,5,6,7,8-octahydroquinazolin-4-yl)benzonitrile] registered an IC50 of 10.8 nM. The figure for `COC(=O)c1ccc(CN2C(=O)N(c3cccc(C(F)(F)F)c3)C3=C(C(=O)CCC3)C2c2ccc(C#N)cc2)o1` (centres unmarked) [Example 28, Methyl 5-((4-(4-Cyanophenyl)-2,5-dioxo-1-(3-(trifluoromethyl)phenyl)-1,2,5,6,7,8-hexahydroquinazolin-3(4H)-yl)methyl)furan-2-carboxylate] is 29 nM; for `N#Cc1ccc(C2C3=C(CCCC3=O)N(c3cccc(C(F)(F)F)c3)C(=O)N2Cc2ccc(C(=O)O)o2)cc1` (centres unmarked) [Example 29, 5-((4-(4-Cyanophenyl)-2,5-dioxo-1-(3-(trifluoromethyl)phenyl)-1,2,5,6,7,8-hexahydroquinazolin-3(4H)-yl)methyl)furan-2-carboxylic acid] it is 13.7 nM; for `CS(=O)(=O)CCN1C(=O)N(c2cccc(C(F)(F)F)c2)C2=C(C(=O)CCC2)C1c1ccc(C#N)cc1` (centres unmarked) [Example 30, 4-(3-(2-(Methylsulfonyl)ethyl)-2,5-dioxo-1-(3-(trifluoromethyl)phenyl)-1,2,3,4,5,6,7,8-octahydroquinazolin-4-yl)benzonitrile] it is 4 nM.

Regarding `N#Cc1ccc(C2C3=C(CCCC3=O)N(c3cccc(C(F)(F)F)c3)C(=O)N2CC(=O)O)cc1` (centres unmarked) [Example 32, 2-(4-(4-Cyanophenyl)-2,5-dioxo-1-(3-(trifluoromethyl)phenyl)-1,2,5,6,7,8-hexahydroquinazolin-3(4H)-yl)acetic acid], the IC50 turned out to be 12 nM.

Compound `N#Cc1ccc([C@@H]2C3=C(CCCC3=O)N(c3cccc(C(F)(F)F)c3)C(=O)N2CC(=O)O)cc1` [Example 32A, (R)-2-(4-(4-Cyanophenyl)-2,5-dioxo-1-(3-(trifluoromethyl)phenyl)-1,2,5,6,7,8-hexahydroquinazolin-3(4H)-yl)acetic acid] showed an IC50 of 4.6 nM. As for `N#Cc1ccc([C@H]2C3=C(CCCC3=O)N(c3cccc(C(F)(F)F)c3)C(=O)N2CC(=O)O)cc1` [Example 32B, (S)-2-(4-(4-Cyanophenyl)-2,5-dioxo-1-(3-(trifluoromethyl)phenyl)-1,2,5,6,7,8-hexahydroquinazolin-3(4H)-yl)acetic acid], inhibition was half-maximal at 1410 nM (IC50). On to `N#Cc1ccc(C2C3=C(CCCC3=O)N(c3cccc(C(F)(F)F)c3)C(=O)N2CC(N)=O)cc1` (centres unmarked) [Example 33, 2-(4-(4-Cyanophenyl)-2,5-dioxo-1-(3-(trifluoromethyl)phenyl)-1,2,5,6,7,8-hexahydroquinazolin-3(4H)-yl)acetamide], for which the midpoint of inhibition, the IC50, lay at 9.6 nM.

For the compound `CN(C)C(=O)CN1C(=O)N(c2cccc(C(F)(F)F)c2)C2=C(C(=O)CCC2)C1c1ccc(C#N)cc1` (centres unmarked) [Example 34, 2-(4-(4-Cyanophenyl)-2,5-dioxo-1-(3-(trifluoromethyl)phenyl)-1,2,5,6,7,8-hexahydroquinazolin-3(4H)-yl)-N,N-dimethylacetamide], half-maximal inhibition (IC50) was put at 3.1 nM. In the case of `Cn1ncc2c1CN(C(=O)CN1C(=O)N(c3cccc(C(F)(F)F)c3)C3=C(C(=O)CCC3)C1c1ccc(C#N)cc1)C2` (centres unmarked) [Example 35, 4-(3-(2-(1-Methylpyrrolo[3,4-c]pyrazol-5(1H,4H,6H)-yl)-2-oxoethyl)-2,5-dioxo-1-(3-(trifluoromethyl)phenyl)-1,2,3,4,5,6,7,8-octahydroquinazolin-4-yl)benzonitrile], the 50% inhibitory concentration (IC50) came to 1.7 nM. As for `CNC(=O)CN1C(=O)N(c2cccc(C(F)(F)F)c2)C2=C(C(=O)CCC2)C1c1ccc(C#N)cc1` (centres unmarked) [Example 36.1], the IC50 is 6.4 nM. For `N#Cc1ccc(C2C3=C(CCCC3=O)N(c3cccc(C(F)(F)F)c3)C(=O)N2CC(=O)NC2CC2)cc1` (centres unmarked) [Example 36.2], the IC50 is 13.1 nM.

As to `N#Cc1ccc(C2C3=C(CCCC3=O)N(c3cccc(C(F)(F)F)c3)C(=O)N2CC(=O)NCC2CC2)cc1` (centres unmarked) [Example 36.3], the IC50 turned out to be 20.8 nM. `CN(C(=O)CN1C(=O)N(c2cccc(C(F)(F)F)c2)C2=C(C(=O)CCC2)C1c1ccc(C#N)cc1)C1CC1` (centres unmarked) [Example 36.4] returned an IC50 of 2.4 nM. For the compound `COCCNC(=O)CN1C(=O)N(c2cccc(C(F)(F)F)c2)C2=C(C(=O)CCC2)C1c1ccc(C#N)cc1` (centres unmarked) [Example 36.5], the IC50 stood at 13.5 nM. `N#Cc1ccc(C2C3=C(CCCC3=O)N(c3cccc(C(F)(F)F)c3)C(=O)N2CC(=O)N2CC3CC3C2)cc1` (centres unmarked) [Example 36.6] displayed an IC50 of 1.2 nM.

`CN(CC1CC1)C(=O)CN1C(=O)N(c2cccc(C(F)(F)F)c2)C2=C(C(=O)CCC2)C1c1ccc(C#N)cc1` (centres unmarked) [Example 36.7] had an IC50 of 3.4 nM. `N#Cc1ccc(C2C3=C(CCCC3=O)N(c3cccc(C(F)(F)F)c3)C(=O)N2CC(=O)N2CCC(O)C2)cc1` (centres unmarked) [Example 36.8] had an IC50 of 2.1 nM.

The compound `N#Cc1ccc(C2C3=C(CCCC3=O)N(c3cccc(C(F)(F)F)c3)C(=O)N2CC(=O)NC2CCOC2)cc1` (centres unmarked) [Example 36.9] displayed an IC50 of 10.6 nM. Against the preceding compound, the IC50 is about 5-fold higher. The compound `CN(C)CCNC(=O)CN1C(=O)N(c2cccc(C(F)(F)F)c2)C2=C(C(=O)CCC2)C1c1ccc(C#N)cc1` (centres unmarked) [Example 36.10] returned an IC50 of 20 nM. `N#Cc1ccc(C2C3=C(CCCC3=O)N(c3cccc(C(F)(F)F)c3)C(=O)N2CC(=O)N2CCC(F)C2)cc1` (centres unmarked) [Example 36.11]: the IC50 was determined as 5.1 nM. Then `COCCN(C)C(=O)CN1C(=O)N(c2cccc(C(F)(F)F)c2)C2=C(C(=O)CCC2)C1c1ccc(C#N)cc1` (centres unmarked) [Example 36.12], with 6.6 nM; and `COCCCNC(=O)CN1C(=O)N(c2cccc(C(F)(F)F)c2)C2=C(C(=O)CCC2)C1c1ccc(C#N)cc1` (centres unmarked) [Example 36.13], with 20.5 nM.

In turn, `CC(C)(O)CNC(=O)CN1C(=O)N(c2cccc(C(F)(F)F)c2)C2=C(C(=O)CCC2)C1c1ccc(C#N)cc1` (centres unmarked) [Example 36.14] gave an IC50 of 8.1 nM. The figure for `N#Cc1ccc(C2C3=C(CCCC3=O)N(c3cccc(C(F)(F)F)c3)C(=O)N2CC(=O)NCc2ccco2)cc1` (centres unmarked) [Example 36.15] is 17.5 nM; for `N#Cc1ccc(C2C3=C(CCCC3=O)N(c3cccc(C(F)(F)F)c3)C(=O)N2CC(=O)N2CCC3(CC3)C2)cc1` (centres unmarked) [Example 36.16] it is 3.6 nM. `N#Cc1ccc(C2C3=C(CCCC3=O)N(c3cccc(C(F)(F)F)c3)C(=O)N2CC(=O)N2CC3(CCC3)C2)cc1` (centres unmarked) [Example 36.17] gave an IC50 of 5.5 nM.

The compound `CC1CN(C(=O)CN2C(=O)N(c3cccc(C(F)(F)F)c3)C3=C(C(=O)CCC3)C2c2ccc(C#N)cc2)CC1C` (centres unmarked) [Example 36.18] returned an IC50 of 4 nM. In the case of `CC1CCN(C(=O)CN2C(=O)N(c3cccc(C(F)(F)F)c3)C3=C(C(=O)CCC3)C2c2ccc(C#N)cc2)CC1` (centres unmarked) [Example 36.19], the 50% inhibitory concentration (IC50) amounted to 10.2 nM. This IC50 is about 2.5-fold higher than that of the compound before. Compound `N#Cc1ccc(C2C3=C(CCCC3=O)N(c3cccc(C(F)(F)F)c3)C(=O)N2CC(=O)N[C@H]2CCNC2=O)cc1` (some centres unmarked) [Example 36.20] displayed an IC50 of 11.4 nM.

With `N#Cc1ccc(C2C3=C(CCCC3=O)N(c3cccc(C(F)(F)F)c3)C(=O)N2CC(=O)N2CCNC(=O)C2)cc1` (centres unmarked) [Example 36.21], the midpoint of inhibition, the IC50, lay at 2.1 nM. With `N#Cc1ccc(C2C3=C(CCCC3=O)N(c3cccc(C(F)(F)F)c3)C(=O)N2CC(=O)NCC2CCOC2)cc1` (centres unmarked) [Example 36.22], the IC50 amounted to 6.8 nM. `COC1CCN(C(=O)CN2C(=O)N(c3cccc(C(F)(F)F)c3)C3=C(C(=O)CCC3)C2c2ccc(C#N)cc2)C1` (centres unmarked) [Example 36.23] yielded an IC50 of 2.1 nM.

Compound `N#Cc1ccc(C2C3=C(CCCC3=O)N(c3cccc(C(F)(F)F)c3)C(=O)N2CC(=O)NCC2CCCO2)cc1` (centres unmarked) [Example 36.24] came in with a half-inhibitory concentration (IC50) of 10.1 nM.

For the compound `CC1(O)CCN(C(=O)CN2C(=O)N(c3cccc(C(F)(F)F)c3)C3=C(C(=O)CCC3)C2c2ccc(C#N)cc2)C1` (centres unmarked) [Example 36.25], inhibition was half-maximal at 1.7 nM (IC50). This IC50 is about 5.9-fold lower than that of the compound before.

With `CC(=O)NCCNC(=O)CN1C(=O)N(c2cccc(C(F)(F)F)c2)C2=C(C(=O)CCC2)C1c1ccc(C#N)cc1` (centres unmarked) [Example 36.26], the IC50 is 17.8 nM. In turn, `N#Cc1ccc(C2C3=C(CCCC3=O)N(c3cccc(C(F)(F)F)c3)C(=O)N2CC(=O)N2CCSCC2)cc1` (centres unmarked) [Example 36.28] came in with an IC50 of 4.4 nM. For `C[S+]([O-])CCNC(=O)CN1C(=O)N(c2cccc(C(F)(F)F)c2)C2=C(C(=O)CCC2)C1c1ccc(C#N)cc1` (centres unmarked) [Example 36.29], 9.5 nM corresponded to half-maximal inhibition (IC50). This IC50 lies about 2.2-fold higher than the previous one. Turning to `N#Cc1ccc(C2C3=C(CCCC3=O)N(c3cccc(C(F)(F)F)c3)C(=O)N2CC(=O)NCCn2ccnc2)cc1` (centres unmarked) [Example 36.30], the IC50 turned out to be 5.9 nM. Compound `Cn1cc(CNC(=O)CN2C(=O)N(c3cccc(C(F)(F)F)c3)C3=C(C(=O)CCC3)C2c2ccc(C#N)cc2)cn1` (centres unmarked) [Example 36.31] displayed an IC50 of 7.8 nM.
